melting point: 228 to 230 °C
Compound: COC(=O)c1ccc(Oc2ccc(NC(=O)Nc3ccc(Cl)c(C(F)(F)F)c3)cc2)cn1 [Entry 55, N-(4-chloro-3-(trifluoromethyl)phenyl)-N′-(4-(2-(methoxycarbonyl)-5-pyridyloxy)phenyl) urea]

— US20020137774A1, “Carboxyaryl substituted diphenyl ureas as raf kinase inhibitors” (BAYER CORPORATION, priority 1999, published 2002)
